From patent US20080161278A1, “2-Azetidinyl-4-(1H-Pyrazol-3-Ylamino) Pyrimidines as Inhibitors of Insulin-Like Growth Factor-1 Receptor Activity” (ASTRAZENECA AB, priority 2005, published 2008)

Tested on: murine fibroblasts (NIH3T3) over-expressing human IGF-1 receptor
Test: Test (c): inhibition of IGF-stimulated cell proliferation (BrdU incorporation)
Format: cell-based
Conditions: Mus musculus
Procedure: c) Inhibition of IGF-Stimulated Cell Proliferation
The construction of murine fibroblasts (NIH3T3) over-expressing human IGF-1 receptor has been described by Lammers et al (EMBO J, 8, 1369-1375, 1989). These cells show a proliferative response to IGF-I which can be measured by BrdU incorporation into newly synthesised DNA. Compound potency was determined as causing inhibition of the IGF-stimulated proliferation in the following assay:
Compounds are initially dissolved in DMSO to 10 mM, followed by dilutions in DMEM+1% FCS+glutamine to give a range from […] in 1-0.00045% DMSO final concentration in assay well.
Exponentially growing NIH3T3/IGFR cells were harvested and seeded in complete growth medium into a flat-bottomed 96 well tissue culture grade plate (Costar 3525) at 1.2×10^4 cells per well in a volume of 100 μl.
Growth medium was carefully removed from each well using a multi-channel pipette. Wells were carefully rinsed three times with 200 μl with HBSS. 100 μl of starvation medium was added to each well and the plate was re-incubated for 24 hours.
50 μl of a 4× concentrate of test compound was added to appropriate wells. Cells were incubated for 30 minutes with compound alone before the addition of IGF. […]
The incorporation of BrdU in the cells (after a 4 h incorporation period) was assessed using the BrdU Cell Proliferation Elisa according to the manufacturer's protocol.

Structure (SMILES)	IC50
Cc1cc(Nc2cc(N3CCOCC3)nc(N3CCC3c3cc(-c4ccccn4)no3)n2)n[nH]1 (centres unmarked) [Example 2, 6-Morpholino-2-{2-[3-(pyrid-2-yl)isoxazol-5-yl]azetidin-1-yl}-4-(5-methyl-1H-pyrazol-3-ylamino)pyrimidine]	0.04 µM
Cc1cc(Nc2cc(C)[nH]n2)nc(N2CCC2c2cc(-c3ccccn3)no2)n1 (centres unmarked) [Example 4, 6-Methyl-2-{2-[3-(pyrid-2-yl)isoxazol-5-yl]azetidin-1-yl}-4-(5-methyl-1H-pyrazol-3-ylamino)pyrimidine]	0.06 µM
